According to patent US20020173502A1, “Pharmaceutically active compounds” (priority 2001, published 2002):

Columns and labels:
[1] = molecular target: T1, cGMP PDE5 (Homo sapiens, UniProt O76074); test: Phosphodiesterase (PDE) inhibitory activity, in vitro IC50; assay type: biochemical; conditions: read-out: IC50 as an inhibitor of cGMP PDE5
T1 construct: were obtained from human corpus cavernosum or human platelets; from tissue; host or cells: human corpus cavernosum or human platelets
Procedure: The compounds of the present invention are cGMP PDE5 inhibitors. In vitro PDE inhibitory activities against cyclic guanosine 3′,5′-monophosphate (CGMP) and cyclic adenosine 3′,5′-monophosphate (cAMP) phosphodiesterases were determined by measurement of their IC50 values (the concentration of compound required for 50% inhibition of enzyme activity).
The required PDE enzymes were isolated from a variety of sources, including human corpus cavernosum, human and rabbit platelets, human cardiac ventricle, human skeletal muscle and human and canine retina, essentially by the method of W. J. Thompson and M. M. Appleman (Biochem., 1971, 10, 311). In particular, the cGMP-specific PDE (PDE5) and the cGMP-inhibited cAMP PDE (PDE3) were obtained from human corpus cavernosum or human platelets; the cGMP-stimulated PDE (PDE2) was obtained from human corpus cavernosum and human platelets; the calcium/calmodulin (Ca/CAM)-dependent PDE (PDE1) from human cardiac ventricle; the cAMP-specific PDE (PDE4) from human skeletal muscle and human recombinant, expressed in SF9 cells; and the photoreceptor PDE (PDE6) from human or canine retina. Phosphodiesterases 7-11 were generated from full length human recombinant clones transfected into SF9 cells. […]

[2] = In vivo interconversion of compound 1A and the compound of Preparation 1; conditions: no species or method printed
[3] = Hepatocyte incubation, metabolism followed by turbulent flow LC-MS-MS; assay type: in vitro ADME, human, dog; conditions: test compound 2 μM, sampled 0-180 minutes; transitions 439 to 84 (ketone) and 441 to 84 (alcohol)
Procedure: Hepatocyte incubations were used to determine the metabolism of both compound 1A according to the present invention and also the compound of Preparation 1. In such testing a marker compound was routinely included to ensure reproducible, active preparations were obtained.
Standard methodologies relating to hepatocyte testing can be found in: Carlille, D, Zomorodi, K, Houston, B; Drug Met. Dispos. 1997, 25(8), pp903-911, “Scaling factors to relate drug metabolic clearance in hepatic microsomes isolated hepatocytes, and the intact liver”.
Marker compound: 0.3 mM Propranolol in 100% DMSO.
Test materials (e.g. compound 1A) 1 mg/ml stocks or 3 mM in 100% DMSO.
Human hepatocytes used at a concentration of 2×10^6 cells/ml (per compound tested).
Dog hepatocytes used at a concentration of 1×10^6 cells/ml (per compound tested).
William's E buffer (1 pot of William's E powder from Sigma, 900 ml distilled water, 2.2 g sodium bicarbonate, 100 ml Foetal Bovine Serum) STOP solution (Midazolam internal standard plus acetonitrile: 600 μl of 10 μg/ml midazolam +30 ml acetonitrile). […]
Hepatocyte viability was determined using the Trypan Blue Exclusion method by gentle mixing of 350 μl KH buffer+100 μI Trypan Blue solution+50 μl cell suspension in an eppendorf tube. The cells were then counted using a haemocytometer. […] The number of viable (colourless) cells within 10 squares was recorded. […]

| SMILES | IC50 [1] [nM] | conversion in vivo (pro-drug / metabolite relation) [2] | mass transition of the starting compound during hepatocyte incubation; product transition then appears [3] |
| --- | --- | --- | --- |
| CCCCOc1ncc(C(C)O)cc1-c1nc2c(CC)n(C3CN(CC)C3)nc2c(=O)[nH]1 (centres unmarked) [Example 1A, 5-[2-Butoxy-5-(1-hydroxyethyl)-3-pyridinyl]-3-ethyl-2-(1-ethyl-3-azetidinyl)-2,6-dihydro-7H-pyrazolo[4,3-d]pyrimidin-7-one] | 825 | converted in vivo to provide the compound of Preparation 1 | reduces to levels below the detection limit of the equipment |
| CCCCOc1ncc(C(C)=O)cc1-c1nc2c(CC)n(C3CN(CC)C3)nc2c(=O)[nH]1 [Preparation 1, 5-(5-acetyl-2-butoxy-3-pyridinyl)-3-ethyl-2-(1-ethyl-3-azetidinyl)-2,6-dihydro-7H-pyrazolo[4,3-d]pyrimidin-7-one, reference compound] | – | Compound 1A is a metabolite of the compound of Preparation 1 | reduces to levels below the detection limit of the equipment |
